Among the data in ChEMBL document CHEMBL3120151, “Synthesis and in vivo evaluation of N-ethylamino-2-oxo-1,2-dihydro-quinoline-3-carboxamide for inhibition of intestinal tumorigenesis in APC(Min/+) mice” (Bioorg Med Chem Lett, 2014) are Activity values, retold here.

SMILES strings stand for the structures. Activity calls are given as the source filed them. The rule behind the calls is not given here.

The subject of data set [1] is Mus musculus. Nature of the data set: Antitumor activity against intestinal polyp in APCMin/+ mouse model at 150 ppm administered with diet from week 6 to week 18 relative to control. In kind it is functional.
Data set [2] has as its system Cancer cell lines. Nature of the data set: Antitumor activity against colon cancer cells in APCMin/+ mouse model assessed as inhibition of colon tumor formation at 150 ppm administered with diet from week 6 to week 18 relative to control. In kind it is functional.
The subject of data set [3] is Mus musculus. The experiment in a line: Antitumor activity against intestinal polyp in APCMin/+ mouse model assessed as reduction in intestinal polyp formation with size >2 mm at 150 ppm administered with diet from week 6 to week 18 relative to control. The data set is classed as functional.
Data set [4] deals with Mus musculus. Nature of the data set: Toxicity in APCMin/+ mouse model assessed as change in body weight at 150 ppm administered with diet from week 6 to week 18 relative to control. The data set is classed as organism-based. The settings on record: in vivo, po.

As to `NCCNC(=O)c1cc2ccccc2[nH]c1=O`, the outcome in data set [1] and in data set [2] was inactive. Besides, the result in data set [3] was Active. The Activity result in data set [4] is recorded as “Non-toxic”.
